Assays:
[1] = molecular target: T1, PDE3 (cGMP-inhibited) in homogenates of human platelets (Homo sapiens, UniProt Q14432); test: PDE3 inhibition, Method A (radioactive PDE assay after Thompson et al.); type: biochemical; details: read-out: PDE3 [−log IC50, mol/l] (converted)
T1 construct: investigated in homogenates of human platelets; from tissue; host or cells: homogenates of human platelets
Procedure: (§1) The PDE activity was determined according to Thompson et al. (Adv Cycl Nucl Res 10: 69-92, 1979) with some modifications (Bauer and Schwabe, Naunyn-Schmiedeberg's Arch Pharmacol 311: 193-198, 1980). The test samples contained 20 mM Tris (pH 7.4), 5 mM MgCl2, 0.5 μM CAMP or cGMP, [^3H]cAMP or [^3H]cGMP (about 30 000 cpm/sample), the PDE isoenzyme-specific additives described in greater detail below, the indicated concentrations of inhibitor and an aliquot of the enzyme solution in a total sample volume of 200 μl. Dilution series of the compounds according to the invention were prepared in DMSO and further diluted in the samples [1:100 (v/v)], to give the desired end concentration of the inhibitors at a DMSO concentration of 1% (v/v), which for its part has only a minute effect on PDE activity.
(§2) After preincubation at 37° C. for 5 minutes, the reaction was started by addition of the substrate (CAMP or cGMP). The samples were incubated at 37° C. for a further 15 min. The reaction was terminated by addition of 50 μl 0.2 N HCl. After cooling on ice for 10 minutes and addition of 25 μg 5′-nucleotidase (snake venom from Crotalus atrox), the mixture was again incubated at 37° C. for 10 min and the samples were then applied to QAE Sephadex A-25 columns (sample volume 1 ml). The columns were eluted with 2 ml of 30 mM ammonium formate (pH 6.0). The radioactivity of the eluate was measured and corrected by the corresponding blank values (measured in the presence of denatured protein); the blank values were less than 5% of the total radioactivity. In no case did the proportion of hydrolyzed nucleotide exceed 30% of the original substrate concentration.
PDE3 (cGMP-inhibited) was investigated in homogenates of human platelets (see Schudt et al., Biochem Pharmacol 1991: 42, 153-162) using CAMP or cGMP as substrate.
(§3) The IC50 values were determined from the concentration-inhibition curves by nonlinear regression.
(§4) The inhibitory values of the compounds 1-16 and 22-24 have been determined according to Method A. The inhibitory values of the compounds 17-21 have been determined according to Method B.

[2] = tested on: PDE4 (cAMP-specific) in the cytosol of human polymorphonuclear leukocytes (PMNL); test: PDE4 inhibition, Method A (radioactive PDE assay after Thompson et al.); type: biochemical; details: cAMP substrate, motapizone 1 μM
Procedure: as §1, §2
PDE4 (cAMP-specific) was investigated in the cytosol of human polymorphonuclear leukocytes (PMNL) [isolated from leukocyte concentrates, see Schudt et al., Arch Pharmacol 1991: 344, 682-690] using cAMP as substrate. The PDE3 inhibitor motapizone (1 μM) was used to suppress the PDE3 activity emanating from contaminated platelets.
as §3, §4

T1 sequence (Q14432 whole entry): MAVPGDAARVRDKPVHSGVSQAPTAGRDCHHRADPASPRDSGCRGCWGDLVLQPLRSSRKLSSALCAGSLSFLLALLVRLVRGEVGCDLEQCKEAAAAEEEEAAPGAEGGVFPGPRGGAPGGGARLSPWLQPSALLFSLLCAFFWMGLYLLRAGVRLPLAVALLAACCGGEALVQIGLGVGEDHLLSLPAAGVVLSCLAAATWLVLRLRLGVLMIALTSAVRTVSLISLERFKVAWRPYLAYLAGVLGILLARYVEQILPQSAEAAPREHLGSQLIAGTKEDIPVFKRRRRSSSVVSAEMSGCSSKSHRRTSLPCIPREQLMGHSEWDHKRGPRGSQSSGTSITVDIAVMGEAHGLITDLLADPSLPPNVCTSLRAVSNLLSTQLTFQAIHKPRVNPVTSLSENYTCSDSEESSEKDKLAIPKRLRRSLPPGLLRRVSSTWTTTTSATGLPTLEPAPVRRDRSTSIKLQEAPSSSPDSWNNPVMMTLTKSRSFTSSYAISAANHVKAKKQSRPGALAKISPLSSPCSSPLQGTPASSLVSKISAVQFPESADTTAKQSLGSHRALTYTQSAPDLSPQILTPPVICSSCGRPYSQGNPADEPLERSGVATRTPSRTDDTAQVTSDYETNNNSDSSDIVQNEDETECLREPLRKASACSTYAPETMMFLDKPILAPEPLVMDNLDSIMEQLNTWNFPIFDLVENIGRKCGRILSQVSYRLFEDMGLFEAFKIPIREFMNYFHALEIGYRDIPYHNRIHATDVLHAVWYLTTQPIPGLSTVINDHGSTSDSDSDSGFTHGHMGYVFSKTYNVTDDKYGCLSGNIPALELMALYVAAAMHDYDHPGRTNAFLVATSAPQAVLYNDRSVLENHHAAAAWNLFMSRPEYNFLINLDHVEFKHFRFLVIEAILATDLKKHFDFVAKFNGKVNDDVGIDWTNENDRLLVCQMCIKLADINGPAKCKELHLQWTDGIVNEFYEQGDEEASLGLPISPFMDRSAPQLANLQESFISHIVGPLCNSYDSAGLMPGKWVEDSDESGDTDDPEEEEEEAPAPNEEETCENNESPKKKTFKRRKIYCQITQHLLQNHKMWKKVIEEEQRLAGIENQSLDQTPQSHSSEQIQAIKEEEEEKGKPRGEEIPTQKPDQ

Row | Compound | IC50 [1] | PDE4 [−log IC50, mol/l] [2]
1 | CCOc1cc2c(cc1OC)C(c1ccc(C(=O)N(CCOC)C(C)C)cc1)=N[C@@H]1CCN(C)C[C@H]21.Cl [Compound 7, 4-((4aR,10bS)-9-Ethoxy-8-methoxy-2-methyl-1,2,3,4,4a,10b-hexahydro-benzo [c][1,6]naphthyridin-6-yl)-N-isopropyl-N-(2-methoxy-ethyl)-benzamide; hydrochloride] | 79.4 nM | 8.8 mol/l
2 | CCOCCCNC(=O)c1ccc(C2=N[C@@H]3CCN(C)C[C@@H]3c3cc(OCC)c(OC)cc32)cc1.Cl [Compound 4, 4-((4aR,10bS)-9-Ethoxy-8-methoxy-2-methyl-1,2,3,4,4a,10b-hexahydro-benzo [c][1,6]naphthyridin-6-yl)-N-(3-ethoxy-propyl)-benzamide; hydrochloride] | 794 nM | 8.4 mol/l
3 | CCOc1cc2c(cc1OC)C(c1ccc(C(=O)N(CC)CCOC)cc1)=N[C@@H]1CCN(C)C[C@H]21.Cl [Compound 5, 4-((4aR,10bS)-9-Ethoxy-8-methoxy-2-methyl-1,2,3,4,4a,10b-hexahydro-benzo [c][1,6]naphthyridin-6-yl)-N-ethyl-N-(2-methoxy-ethyl)-benzamide; hydrochloride] | 200 nM | 8.9 mol/l
4 | CCOc1cc2c(cc1OC)C(c1ccc(C(=O)N[C@@H](C)COC)cc1)=N[C@@H]1CCN(C)C[C@H]21.Cl [Compound 2, 4-((4aR,10bS)-9-Ethoxy-8-methoxy-2-methyl-1,2,3,4,4a,10b-hexahydro-benzo [c][1,6]naphthyridin-6-yl)-N-((S)-2-methoxy-1-methyl-ethyl)-benzamide; hydrochloride] | 1580 nM | 8.5 mol/l
5 | CCOc1cc2c(cc1OC)C(c1ccc(C(=O)NC(CC)COC)cc1)=N[C@@H]1CCN(C)C[C@H]21.Cl (mixture of isomers) [Compound 3, 4-((4aR,10bS)-9-Ethoxy-8-methoxy-2-methyl-1,2,3,4,4a,10b-hexahydro-benzo [c][1,6]naphthyridin-6-yl)-N-(1(rac)-methoxymethyl-propyl)-benzamide; hydrochloride] | 1000 nM | 9.0 mol/l
6 | CCOc1cc2c(cc1OC)C(c1ccc(C(=O)NCCCOC(C)C)cc1)=N[C@@H]1CCN(C)C[C@H]21.Cl [Compound 1] | – | 8.9 mol/l
7 | CCCN(CCOC)C(=O)c1ccc(C2=N[C@@H]3CCN(C)C[C@@H]3c3cc(OCC)c(OC)cc32)cc1.Cl [Compound 6, 4-((4aR,10bS)-9-Ethoxy-8-methoxy-2-methyl-1,2,3,4,4a,10b-hexahydro-benzo [c][1,6]naphtpyridin-6-yl)-N-(2-methoxy-ethyl)-N-propyl-benzamide; hydrochloride] | 126 nM | 9.2 mol/l
8 | CCOc1cc2c(cc1OC)C(c1ccc(C(=O)NCCCOC(C)C)cc1)=N[C@@H]1CCN(C)C[C@H]21.Cl [Compound 1, 4-(4aR,10bS)-9-Ethoxy-8-methoxy-2-methyl-1,2,3,4,4a,10b-hexahydro-benzo [c][1,6]naphthyridin-6-yl)-N-(3-isopropoxy-propyl)-benzamide; hydrochloride] | 631 nM | –
9 | CCOc1cc2c(cc1OC)C(c1ccc(C(=O)N(C(C)C)[C@H](C)COCc3ccccc3)cc1)=N[C@@H]1CCN(C)C[C@H]21 [Compound 8, N—((R)-2-Benzyloxy-1-methyl-ethyl)-4-((4aR,10bS)-9-ethoxy-8-methoxy-2-methyl-1,2,3,4,4a,10b-hexahydro-benzo[c][1,6]naphthyridin-6-yl)-N-isopropyl-benzamide] | 31.6 nM | 9.8 mol/l
10 | CCCCOCCCNC(=O)c1ccc(C2=N[C@@H]3CCN(C)C[C@@H]3c3cc(OCC)c(OC)cc32)cc1.Cl [Compound 16, N-(3-Butoxy-propyl)-4-((4aR,10bS)-9-ethoxy-8-methoxy-2-methyl-1,2,3,4,4a,10b-hexahydro-benzo [c][1,6]naphthyridin-6-yl)-benzamide; hydrochloride] | 398 nM | 8.5 mol/l

Next, values leading:

Row | IC50 [1] | PDE4 [−log IC50, mol/l] [2] | Compound
11 | 15.8 nM | 9.8 mol/l | CCOc1cc2c(cc1OC)C(c1ccc(C(=O)N(C(C)C)[C@@H](C)COCc3ccccc3)cc1)=N[C@@H]1CCN(C)C[C@H]21 [Compound 9, N—((S)-2-Benzyloxy-1-methylethyl)-4-((4aR,10bS)-9-ethoxy-8-methoxy-2-methyl-1,2,3,4,4a,10b-hexahydro-benzo[c][1,6]naphthyridin-6-yl)-N-isopropyl-benzamide]
12 | 251 nM | 9.0 mol/l | CCOc1cc2c(cc1OC)C(c1ccc(C(=O)N[C@@H](C)COCc3ccccc3)cc1)=N[C@@H]1CCN(C)C[C@H]21 [Compound 24, N—((S)-2-Benzyloxy-1-methyl-ethyl)-4-((4aR,10bS)-9-ethoxy-8-methoxy-2-methyl-1,2,3,4,4a,10b-hexahydro-benzo[c][1,6]naphthyridin-6-yl)-benzamide]
13 | 1000 nM | 7.8 mol/l | CCOc1cc2c(cc1OC)C(c1ccc(C(=O)NCCOC)cc1)=N[C@@H]1CCN(C)C[C@H]21.Cl [Compound 14, 4-((4aR,10bS)-9-Ethoxy-8-methoxy-2-methyl-1,2,3,4,4a,10b-hexahydro-benzo [c][1,6]naphthyridin-6-yl)-N-(2-methoxy-ethyl)-benzamide; hydrochloride]
14 | 251 nM | 8.0 mol/l | CCOc1cc2c(cc1OC)C(c1ccc(C(=O)N(C)CCOC)cc1)=N[C@@H]1CCN(C)C[C@H]21.Cl [Compound 15, 4-((4aR,10bS)-9-Ethoxy-8-methoxy-2-methyl-1,2,3,4,4a,10b-hexahydro-benzo [c][1,6]naphthyridin-6-yl)-N-(2-methoxy-ethyl)-N-methyl-benzamide; hydrochloride]
15 | 63.1 nM | 9.4 mol/l | CCOc1cc2c(cc1OC)C(c1ccc(C(=O)N(C)[C@H](COCc3ccccc3)CC(C)C)cc1)=N[C@@H]1CCN(C)C[C@H]21 [Compound 22, N—((S)-1-Benzyloxymethyl-3-methyl-butyl)-4-((4aR,10bS)-9-ethoxy-8-methoxy-2-methyl-1,2,3,4,4a,10b-hexahydro-benzo[c][1,6]naphthyridin-6-yl)-N-methyl-benzamide]
16 | 79.4 nM | 9.0 mol/l | CCOc1cc2c(cc1OC)C(c1ccc(C(=O)N(C(C)C)[C@@H](C)COC)cc1)=N[C@@H]1CCN(C)C[C@H]21.Cl [Compound 11, 4-((4aR,10bS)-9-Ethoxy-8-methoxy-2-methyl-1,2,3,4,4a,10b-hexahydro-benzo [c][1,6]naphthyridin-6-yl)-N-isopropyl-N-((S)-2-methoxy-1-methyl-ethyl)-benzamide; hydrochloride]
17 | 200 nM | 9.9 mol/l | CCOc1cc2c(cc1OC)C(c1ccc(C(=O)N(CCCOC)C3CCCCC3)cc1)=N[C@@H]1CCN(C)C[C@H]21.Cl [Compound 13, N-Cyclohexyl-4-((4aR,10bS)-9-ethoxy-8-methoxy-2-methyl-1,2,3,4,4a,10b-hexahydro-benzo [c][1,6]naphthyridin-6-yl)-N-(3-methoxy-propyl)-benzamide; hydrochloride]
18 | 158 nM | 9.5 mol/l | CCOc1cc2c(cc1OC)C(c1ccc(C(=O)N(Cc3ccccc3)[C@@H](C)COCc3ccccc3)cc1)=N[C@@H]1CCN(C)C[C@H]21 [Compound 23, N-Benzyl-N-((S)-2-benzyloxy-1-methyl-ethyl)-4-((4aR,10bS)-9-ethoxy-8-methoxy-2-methyl-1,2,3,4,4a,10b-hexahydro-benzo[c][1,6]naphthyridin-6-yl)-benzamide]
19 | 100 nM | 8.9 mol/l | CCOc1cc2c(cc1OC)C(c1ccc(C(=O)N(C(C)C)C(C)CCOCc3ccccc3)cc1)=N[C@@H]1CCN(C)C[C@H]21 (mixture of isomers) [Compound 10, N-(3-Benzyloxy-1-methyl-propyl)-4-((4aR,10bS)-9-ethoxy-8-methoxy-2-methyl-1,2,3,4,4a,10b-hexahydro-benzo[c][1,6]naphthyridin-6-yl)-N-isopropyl-benzamide]

From patent publication US7671068B2, “N-(alkoxyalkyl) carbamoyl-substituted 6-phenyl-benzonaphthyridine derivatives and their use as PDE ¾ inhibitors” (NYCOMED GmbH, priority 2004, dated 2010)
